The source made the active and inactive calls. No cut-off for these calls is given here.
Legend:
Rattus norvegicus [1] = experiment: Anti-inflammatory activity in Sprague-Dawley rat model of CFA-induced rheumatoid arthritis assessed as decrease in lymphocytes infiltration in synovial tissue at 10 mg/kg, po administered daily measured after 19 days by H and E staining based analysis; assay type: functional, organism-based; conditions: time 19.0 day
Cytochrome P450 2C19 = Cytochrome P450 2C19 (Homo sapiens, UniProt P33261); experiment: Inhibition of CYP2C19 in human liver microsomes preincubated for 10 mins followed by NADPH addition measured after 3.5 mins by LC-MS/MS analysis; assay type: ADME, Microsome
Mus musculus [2] = experiment: Analgesic effect in BALB/c mouse model of acetic acid-induced writhing assessed as reduction in number of writhing episodes at 20 mg/kg, po pretreated for 1 hr followed by acetic acid treatment and measured after 5 to 35 mins relative to control; assay type: functional; parameters: scale not given: the % may be the effect or the level left; conditions: time 65-95 min
Mus musculus [3] = experiment: Anti-inflammatory activity in BALB/c mouse model of carrageenan-induced paw edema assessed as inhibition of paw swelling at 20 mg/kg, po measured up to 6 hrs relative to control; assay type: functional
Rattus norvegicus [4] = experiment: Anti-inflammatory activity in Sprague-Dawley rat model of CFA-induced rheumatoid arthritis assessed as BV/TV value at 10 mg/kg, po administered daily measured after 19 days by micro-CT analysis (reference value: 40.047 %); assay type: functional; conditions: time 19 day
Mus musculus [5] = experiment: (§1) Anti-inflammatory activity in CD-1 mouse model of cerulein-induced acute pancreatitis assessed as increase in ratio of plasma 11,12-EET/DHET level at 10 mg/kg, ip drug administered at 30 mins and 2.5 hrs post-first cerulein injection and measured after 6 hrs post-first cerulein injection (reference value: 69.8 to 77.3 %); assay type: functional; conditions: time 3.5-5.5 hrs
Rattus norvegicus [6] = experiment: Anti-inflammatory activity in Sprague-Dawley rat model of CFA-induced rheumatoid arthritis assessed as increase in ratio of plasma 14,15-EET to DHET levels at 10 mg/kg, po administered daily measured after 19 days relative to control; assay type: functional; conditions: time 19 day
Mus musculus [7] = experiment: Anti-inflammatory activity in BALB/c mouse model of carrageenan-induced paw edema assessed as increase in ratio of 11,12-EET to DHET plasma levels at 10 mg/kg, po measured after 6 hrs relative to control; assay type: functional
Mus musculus [8] = experiment: Anti-inflammatory activity in BALB/c mouse model of carrageenan-induced paw edema at 20 mg/kg, po measured for 0.5 to 6 hrs; assay type: functional, organism-based; conditions: time 0.5-6 hrs
Mus musculus [9] = experiment: Effect on ratio of 5,6-EET to DHET plasma levels in BALB/c mouse model of carrageenan-induced paw edema at 10 mg/kg, po measured after 6 hrs; assay type: functional, organism-based
[10] = Half life in Sprague-Dawley rat at 5 mg/kg, iv measured for 24 hrs; assay type: ADME, organism-based; conditions: in vivo
Mus musculus [11] = experiment: Anti-inflammatory activity in CD-1 mouse model of cerulein-induced acute pancreatitis assessed as decrease in neutrophil infiltration in pancreas at 10 mg/kg, ip drug administered at 30 mins and 2.5 hrs post-first cerulein injection and measured after 6 hrs post-first cerulein injection by H and E staining based analysis; assay type: functional, organism-based; conditions: time 3.5-5.5 hrs
Rattus norvegicus [12] = experiment: Anti-inflammatory activity in Sprague-Dawley rat model of CFA-induced rheumatoid arthritis assessed as improvement in joint tissue structure at 10 mg/kg, po administered daily measured after 19 days by H and E staining based analysis; assay type: functional, organism-based; conditions: time 19.0 day
Rattus norvegicus [13] = experiment: Anti-inflammatory activity in Sprague-Dawley rat model of CFA-induced rheumatoid arthritis assessed as smooth cartilage surface at 10 mg/kg, po administered daily measured after 19 days by H and E staining based analysis; assay type: functional, organism-based; conditions: time 19.0 day
Rattus norvegicus [14] = experiment: Anti-inflammatory activity in Sprague-Dawley rat model of CFA-induced rheumatoid arthritis assessed as improvement in joint cavity at 10 mg/kg, po administered daily measured after 19 days by H and E staining based analysis; assay type: functional, organism-based; conditions: time 19.0 day
Mus musculus [15] = experiment: Anti-inflammatory activity in BALB/c mouse model of carrageenan-induced paw edema assessed as inhibition of paw swelling at 10 mg/kg, po measured after 6 hrs relative to control; assay type: functional
Mus musculus [16] = experiment: Anti-inflammatory activity in BALB/c mouse model of carrageenan-induced paw edema assessed as inhibition of paw swelling at 10 mg/kg, po measured up to 6 hrs relative to control; assay type: functional; conditions: Mus musculus, BALB/c
Mus musculus [17] = experiment: Anti-inflammatory activity in BALB/c mouse model of carrageenan-induced paw edema assessed as decrease in plasma 8,9-DHET levels at 10 mg/kg, po measured after 6 hrs relative to control; assay type: functional; parameters: scale not given: the % may be the effect or the level left
[18] = In vivo inhibition of liver sEH enzyme activity in Sprague-Dawley rat model of CFA-induced rheumatoid arthritis at 10 mg/kg, po administered daily measured after 19 days relative to control; assay type: functional; conditions: 456 h, time 19 day
[19] = Half life in Sprague-Dawley rat at 20 mg/kg, po measured for 24 hrs; assay type: ADME, organism-based; conditions: in vivo
Mus musculus [20] = experiment: Anti-inflammatory activity in BALB/c mouse model of carrageenan-induced paw edema assessed as increase in plasma 11,12-EET levels at 10 mg/kg, po measured after 6 hrs relative to control; assay type: functional
Mus musculus [21] = experiment: Anti-inflammatory activity in BALB/c mouse model of carrageenan-induced paw edema assessed as inhibition of paw swelling at 20 mg/kg, po measured for 0.5 hrs relative to control; assay type: functional; conditions: Mus musculus, BALB/c
Cytochrome P450 2D6 = Cytochrome P450 2D6 (Homo sapiens, UniProt P10635); experiment: Inhibition of CYP2D6 in human liver microsomes preincubated for 10 mins followed by NADPH addition measured after 3.5 mins by LC-MS/MS analysis; assay type: ADME, Microsome
Mus musculus [22] = experiment: as §1, with “pancreatic EET/DHET” for “plasma 11,12-EET/DHET”, “23.5” for “69.8”, “41.7” for “77.3”; assay type: functional; conditions: time 3.5-5.5 hrs
[23] = Cmax in Sprague-Dawley rat at 20 mg/kg, po measured for 24 hrs; assay type: ADME, organism-based; conditions: in vivo
Rattus norvegicus [24] = experiment: Anti-inflammatory activity in Sprague-Dawley rat model of CFA-induced rheumatoid arthritis assessed as improvement in chondrocytes morphology at 10 mg/kg, po administered daily measured after 19 days by H and E staining based analysis; assay type: functional, organism-based; conditions: time 19.0 day
Rattus norvegicus [25] = experiment: Anti-inflammatory activity in Sprague-Dawley rat model of CFA-induced rheumatoid arthritis assessed as […] in connective tissue proliferation in synovial tissue at 10 mg/kg, po administered daily measured after 19 days by H and E staining based analysis; assay type: functional, organism-based; conditions: time 19.0 day
Mus musculus [26] = experiment: Anti-inflammatory activity in BALB/c mouse model of carrageenan-induced paw edema assessed as inhibition of paw swelling at 1 mg/kg, po measured after 6 hrs relative to control; assay type: functional
Mus musculus [27] = experiment: Anti-inflammatory activity in BALB/c mouse model of carrageenan-induced paw edema assessed as decrease in plasma 11,12-DHET levels at 10 mg/kg, po measured after 6 hrs relative to control; assay type: functional; parameters: scale not given: the % may be the effect or the level left
Rattus norvegicus [28] = experiment: Anti-inflammatory activity in Sprague-Dawley rat model of CFA-induced rheumatoid arthritis assessed as TV value at 10 mg/kg, po administered daily measured after 19 days by micro-CT analysis (reference value: 92.617 mm3); assay type: functional; conditions: time 19 day
Rattus norvegicus [29] = experiment: Anti-inflammatory activity in Sprague-Dawley rat model of CFA-induced rheumatoid arthritis assessed as increase in plasma 14,15-EET level at 10 mg/kg, po administered daily measured after 19 days relative to control; assay type: functional; conditions: time 19 day
[30] = Tmax in Sprague-Dawley rat at 5 mg/kg, iv measured for 24 hrs; assay type: ADME, organism-based; conditions: in vivo
[31] = Tmax in Sprague-Dawley rat at 20 mg/kg, po measured for 24 hrs; assay type: ADME, organism-based; conditions: in vivo
Mus musculus [32] = experiment: Anti-inflammatory activity in BALB/c mouse model of carrageenan-induced paw edema assessed as inhibition of paw swelling at 1 mg/kg, po measured up to 6 hrs relative to control; assay type: functional

Chain of Cytochrome P450 2D6 (P10635 whole entry): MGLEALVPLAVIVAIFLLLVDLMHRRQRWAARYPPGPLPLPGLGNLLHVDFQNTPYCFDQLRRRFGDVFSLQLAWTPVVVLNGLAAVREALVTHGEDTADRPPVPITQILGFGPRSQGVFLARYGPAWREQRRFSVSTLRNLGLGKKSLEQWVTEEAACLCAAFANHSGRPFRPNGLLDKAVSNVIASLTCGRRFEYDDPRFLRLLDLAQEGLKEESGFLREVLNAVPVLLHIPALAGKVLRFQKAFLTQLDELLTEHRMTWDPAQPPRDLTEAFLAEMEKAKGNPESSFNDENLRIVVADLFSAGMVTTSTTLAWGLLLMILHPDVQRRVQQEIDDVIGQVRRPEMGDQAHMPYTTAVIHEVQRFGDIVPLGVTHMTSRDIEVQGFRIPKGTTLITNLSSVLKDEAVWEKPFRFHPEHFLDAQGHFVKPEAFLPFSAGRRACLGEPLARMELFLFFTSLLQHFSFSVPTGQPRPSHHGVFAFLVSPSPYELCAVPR
Chain of Cytochrome P450 2C19 (P33261 whole entry): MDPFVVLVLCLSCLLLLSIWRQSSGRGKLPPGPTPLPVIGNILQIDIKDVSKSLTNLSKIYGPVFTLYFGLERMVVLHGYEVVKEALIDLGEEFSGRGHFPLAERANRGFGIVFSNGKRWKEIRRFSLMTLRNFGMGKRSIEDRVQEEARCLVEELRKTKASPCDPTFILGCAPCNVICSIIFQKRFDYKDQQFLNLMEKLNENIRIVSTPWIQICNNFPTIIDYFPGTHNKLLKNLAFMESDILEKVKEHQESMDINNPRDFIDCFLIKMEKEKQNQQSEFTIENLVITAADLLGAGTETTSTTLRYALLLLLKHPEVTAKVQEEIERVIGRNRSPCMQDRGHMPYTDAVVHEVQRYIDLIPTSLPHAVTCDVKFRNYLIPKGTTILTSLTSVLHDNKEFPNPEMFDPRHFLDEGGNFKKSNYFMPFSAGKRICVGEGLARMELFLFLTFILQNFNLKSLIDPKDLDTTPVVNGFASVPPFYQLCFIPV

IC50 (Cytochrome P450 2C19): 9.5 µM | half-life [10]: 25.2 min | half-life [19]: 113 min | IC50 (Cytochrome P450 2D6): 46.8 µM | Cmax [23]: 359 ng/mL | Tmax [30]: 4.8 min | Tmax [31]: 30 min
SMILES: COc1cc(CC(=O)N2CCC(NC(=O)NCc3ccc(OC(F)(F)F)cc3)CC2)cc(OC)c1
Activity (Rattus norvegicus [1]): Active; Small Lymphocytes Infiltration Was Observed | Activity (Mus musculus [2]): 42% | inhibition in vivo at 20 mg/kg (Mus musculus [3]): 44.6% | Activity (Rattus norvegicus [4]): 62.73% | Activity (Mus musculus [5]): 552% | Activity (Rattus norvegicus [6]): 463% | Activity (Mus musculus [7]): 362% | Activity (Mus musculus [8]): Active | Activity (Mus musculus [9]): No effect | Activity (Mus musculus [11]): Active | Activity (Rattus norvegicus [12]): Active | Activity (Rattus norvegicus [13]): Active | Activity (Rattus norvegicus [14]): Active | inhibition in vivo at 10 mg/kg (Mus musculus [15]): 20.8% | inhibition in vivo at 10 mg/kg (Mus musculus [16]): 38.8% | Activity (Mus musculus [17]): 70.3% | inhibition in vivo at 10 mg/kg [18]: 24.7% | Activity (Mus musculus [20]): 85.4% | inhibition in vivo at 20 mg/kg (Mus musculus [21]): 29.5% | Activity (Mus musculus [22]): 311% | Activity (Rattus norvegicus [24]): Active | Activity (Rattus norvegicus [25]): Active; Minimal Connective Tissue Proliferation Was Observed | inhibition in vivo at 1 mg/kg (Mus musculus [26]): 22% | Activity (Mus musculus [27]): 55.1% | Activity (Rattus norvegicus [28]): 57.762 mm3 | Activity (Rattus norvegicus [29]): 175% | inhibition in vivo at 1 mg/kg (Mus musculus [32]): 34%
